Assay results reported in PubChem BioAssay (NCI).
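Protocol summary: plate cells (96-well), add compound at 5 concentrations, incubate 48 h, interpolate endpoints linearly. TGI marks complete inhibition of growth.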

Assays:
Assay in all cases: growth of human tumour cells (NCI), 48 h
[1] = test system: A498 renal
[2] = test system: A549 NSCLC
[3] = test system: ACHN renal
[4] = test system: BT-549 breast
[5] = test system: CAKI-1 renal
[6] = test system: CCRF-CEM leukemia
[7] = test system: COLO 205 colon
[8] = test system: DU-145 prostate
[9] = test system: EKVX NSCLC
[10] = test system: HCC-2998 colon
[11] = test system: HCT-116 colon
[12] = test system: HL-60(TB) leukemia
[13] = test system: HOP-62 NSCLC
[14] = test system: HS 578T breast
[15] = test system: HT29 colon
[16] = test system: IGROV1 ovarian
[17] = test system: K-562 leukemia
[18] = test system: KM12 colon
[19] = test system: LOX IMVI melanoma
[20] = test system: M14 melanoma
[21] = test system: MALME-3M melanoma
[22] = test system: MCF7 breast
[23] = test system: MDA-MB-231 breast
[24] = test system: MDA-MB-435
[25] = test system: MDA-N
[26] = test system: NCI-H226 lung
[27] = test system: NCI-H460 lung
[28] = test system: NCI-H522 lung
[29] = test system: NCI/ADR-RES ovarian
[30] = test system: OVCAR-3 ovarian
[31] = test system: OVCAR-4 ovarian
[32] = test system: OVCAR-5 ovarian
[33] = test system: PC-3 prostate
[34] = test system: RPMI-8226 leukemia
[35] = test system: SF-268 CNS
[36] = test system: SF-295 CNS
[37] = test system: SK-MEL-2 melanoma
[38] = test system: SK-MEL-28 melanoma
[39] = test system: SK-MEL-5 melanoma
[40] = test system: SN12C renal
[41] = test system: SNB-19 CNS
[42] = test system: SNB-75 CNS
[43] = test system: SR leukemia
[44] = test system: SW-620 colon
[45] = test system: T-47D breast
[46] = test system: TK-10 renal
[47] = test system: U251 CNS
[48] = test system: UACC-257 melanoma
[49] = test system: UACC-62 melanoma
[50] = test system: UO-31 renal
[51] = test system: 786-0 renal
[52] = test system: HCT-15 colon
[53] = test system: HOP-92 NSCLC
[54] = test system: MOLT-4 leukemia
[55] = test system: NCI-H23 lung
[56] = test system: OVCAR-8 ovarian
[57] = test system: RXF 393 renal
[58] = test system: SF-539 CNS
[59] = test system: SK-OV-3 ovarian

Which results are given for `CC1CCC2(NC1)OC1CC3C4CCC5CC(OC6OC(CO)C(OC7OC(CO)C(O)C(OC8OCC(O)C(O)C8O)C7OC7OC(CO)C(O)C(O)C7O)C(O)C6O)CCC5(C)C4CCC3(C)C1C2C` (stereo unspecified)?
TGI [1]: 3.75 µM; TGI [2]: 4.99 µM; TGI [3]: 4.82 µM; TGI [4]: 5.97 µM; TGI [5]: 2.11 µM; TGI [6]: > 22 µM; TGI [7]: 4 µM; TGI [8]: 3.46 µM; TGI [9]: 2.37 µM; TGI [10]: 2.78 µM; TGI [11]: 6.98 µM; TGI [12]: 4.93 µM; TGI [13]: 3.68 µM; TGI [14]: 3.85 µM; TGI [15]: 3.26 µM; TGI [16]: 1.86 µM; TGI [17]: > 21.2 µM; TGI [18]: 4.64 µM; TGI [19]: > 100 µM; TGI [20]: 3.02 µM; TGI [21]: 2.83 µM; TGI [22]: 6.3 µM; TGI [23]: 3.4 µM; TGI [24]: 3.03 µM; TGI [25]: 1.02 µM; TGI [26]: 3.72 µM; TGI [27]: 4.16 µM; TGI [28]: 3.12 µM; TGI [29]: 3.93 µM; TGI [30]: 3.12 µM; TGI [31]: 3.1 µM; TGI [32]: 2.73 µM; TGI [33]: 1.05 µM; TGI [34]: 4.01 µM; TGI [35]: 3.32 µM; TGI [36]: 2.32 µM; TGI [37]: 3.75 µM; TGI [38]: 3.46 µM; TGI [39]: 3.56 µM; TGI [40]: 3.32 µM; TGI [41]: 3.38 µM; TGI [42]: 3.56 µM; TGI [43]: > 100 µM; TGI [44]: 3.94 µM; TGI [45]: 5.07 µM; TGI [46]: 3.4 µM; TGI [47]: 3.07 µM; TGI [48]: 4.65 µM; TGI [49]: 2.65 µM; TGI [50]: 2.69 µM

What does the source list for `CN1CCN(CC(=O)Nc2cccc3ccccc23)CC1`?
TGI [51]: > 100 µM; TGI [1]: > 100 µM; TGI [2]: > 100 µM; TGI [3]: > 100 µM; TGI [4]: > 100 µM; TGI [5]: > 100 µM; TGI [6]: > 100 µM; TGI [7]: > 100 µM; TGI [8]: > 100 µM; TGI [9]: > 100 µM; TGI [10]: > 100 µM; TGI [11]: > 100 µM; TGI [52]: > 100 µM; TGI [12]: > 100 µM; TGI [13]: > 100 µM; TGI [53]: > 100 µM; TGI [14]: > 100 µM; TGI [15]: > 31.6 µM; TGI [16]: > 100 µM; TGI [17]: > 100 µM; TGI [18]: > 100 µM; TGI [19]: > 100 µM; TGI [20]: > 100 µM; TGI [21]: > 100 µM; TGI [22]: > 100 µM; TGI [23]: > 100 µM; TGI [24]: > 100 µM; TGI [25]: > 100 µM; TGI [54]: > 100 µM; TGI [26]: > 100 µM; TGI [55]: > 100 µM; TGI [27]: > 100 µM; TGI [28]: > 100 µM; TGI [29]: > 100 µM; TGI [30]: > 100 µM; TGI [31]: > 100 µM; TGI [32]: > 100 µM; TGI [56]: > 100 µM; TGI [33]: > 100 µM; TGI [34]: > 100 µM; TGI [57]: > 100 µM; TGI [35]: > 100 µM; TGI [36]: > 100 µM; TGI [58]: > 100 µM; TGI [37]: > 100 µM; TGI [38]: > 100 µM; TGI [39]: > 100 µM; TGI [59]: > 100 µM; TGI [40]: > 100 µM; TGI [41]: > 100 µM; TGI [43]: > 100 µM; TGI [44]: > 100 µM; TGI [45]: > 100 µM; TGI [46]: > 100 µM; TGI [47]: > 100 µM; TGI [48]: > 100 µM; TGI [49]: > 100 µM; TGI [50]: > 100 µM

How did the TGI [51] turn out when `COC(=O)C1CC2C=CC1N(C(=O)OCc1ccccc1)C2` (stereo unspecified) was run?
Its TGI is > 100 µM.

What about the TGI [1] of the same compound?
Its TGI is > 100 µM.

What about the TGI [2] of the same compound?
Its TGI is > 100 µM.

What about the TGI [3] of the same compound?
The TGI was > 100 µM.

And the TGI [4]?
Its TGI is > 100 µM.

What about the TGI [5] of the same compound?
The TGI was > 100 µM.

What about the TGI [6] of the same compound?
The TGI was > 100 µM.

What about the TGI [7] of the same compound?
Its TGI is > 100 µM.

What about the TGI [8] of the same compound?
Its TGI is > 100 µM.

And the TGI [9]?
The TGI was > 100 µM.

And the TGI [10]?
Its TGI is > 100 µM.

And the TGI [11]?
Its TGI is > 100 µM.

And the TGI [52]?
The TGI was > 100 µM.

And the TGI [12]?
The TGI was > 100 µM.

What about the TGI [13] of the same compound?
The TGI was > 100 µM.

And the TGI [14]?
Its TGI is > 100 µM.

And the TGI [15]?
The TGI was > 100 µM.

And the TGI [16]?
The TGI was > 100 µM.

And the TGI [17]?
The TGI was > 100 µM.

And the TGI [18]?
Its TGI is > 100 µM.

And the TGI [19]?
Its TGI is > 100 µM.

What about the TGI [20] of the same compound?
Its TGI is > 100 µM.

What about the TGI [21] of the same compound?
Its TGI is > 100 µM.

What about the TGI [22] of the same compound?
The TGI was > 100 µM.

And the TGI [23]?
Its TGI is > 100 µM.

And the TGI [24]?
Its TGI is > 100 µM.

What about the TGI [25] of the same compound?
The TGI was > 100 µM.

And the TGI [54]?
Its TGI is > 100 µM.

What about the TGI [26] of the same compound?
Its TGI is > 100 µM.

And the TGI [55]?
Its TGI is > 100 µM.

What about the TGI [27] of the same compound?
The TGI was > 100 µM.

And the TGI [28]?
The TGI was 43.5 µM.

What about the TGI [29] of the same compound?
The TGI was > 100 µM.

What about the TGI [30] of the same compound?
The TGI was > 100 µM.

What about the TGI [31] of the same compound?
The TGI was > 100 µM.

What about the TGI [32] of the same compound?
The TGI was > 100 µM.

What about the TGI [56] of the same compound?
The TGI was > 100 µM.

What about the TGI [33] of the same compound?
Its TGI is > 100 µM.

What about the TGI [34] of the same compound?
The TGI was > 100 µM.

What about the TGI [57] of the same compound?
Its TGI is > 100 µM.

What about the TGI [35] of the same compound?
The TGI was > 100 µM.

And the TGI [36]?
Its TGI is > 100 µM.

What about the TGI [58] of the same compound?
Its TGI is > 100 µM.

What about the TGI [37] of the same compound?
Its TGI is > 100 µM.

And the TGI [38]?
The TGI was > 100 µM.

And the TGI [39]?
The TGI was > 100 µM.

And the TGI [59]?
Its TGI is > 100 µM.

What about the TGI [40] of the same compound?
The TGI was > 100 µM.

And the TGI [41]?
The TGI was > 100 µM.

And the TGI [42]?
Its TGI is > 100 µM.

And the TGI [43]?
The TGI was > 100 µM.

What about the TGI [44] of the same compound?
The TGI was > 100 µM.

And the TGI [45]?
The TGI was > 100 µM.

What about the TGI [46] of the same compound?
Its TGI is > 100 µM.

And the TGI [47]?
The TGI was > 100 µM.

What about the TGI [48] of the same compound?
Its TGI is > 100 µM.

What about the TGI [49] of the same compound?
The TGI was > 100 µM.

What about the TGI [50] of the same compound?
Its TGI is > 100 µM.
